The source of these data is patent US5747503A, “Selective inhibitors of biogenic amine transporters” (priority 1996, dated 1998).

For experiment [1], the system named is extracellular dopamine in the nucleus accumbens. Briefly: In vivo microdialysis of extracellular dopamine in nucleus accumbens. Also noted: species or system rat. The protocol: FIG. 3. In vivo microdialysis of extracellular dopamine in the nucleus accumbens at concentrations of 1, 10, and 100 μM of RTI-4793-14. All values are mean ±SEM (n=4). Group comparisons are made with one-way ANOVA and the Dunnetts t-test *p<0.05 and **p<0.01.
FIG. 4. Effects of systemic RTI-4793-14 (5 mg/kg, i.v.) on extracellular dopamine in the nucleus accumbens. All values are mean ± SEM (n=3). Group comparisons are made with one-way ANOVA and the Dunnetts t-test *p<0.05 and **p<0.01. FIG. 5. Schematic diagram for the synthesis of RTI-4793-41 and RTI-4793-48 compounds and analogs thereof.
Male Sprague Dawley rats (350-450 g) were anesthetized with chloral hydrate (400 mg/kg; 100 mg/ml) and supplemented as required (90 mg/kg) to abolish the corneal reflex. Animals were then placed in a stereotaxic frame and dialysis probes (CMA 12, 2 mm) were implanted into the nucleus accumbens (AP:+2mm, LAT:+l.5mm, H:-7.5mm relative to bregma) according to the atlas of Paxinos and Watson (Paxinos, G. "The rat brain in stereotaxic coordinates." (New York: Academic Press, 1982)). The dialysis probes were perfused with a physiological medium containing 145 mM NaCl, 4 mM KCl, 1.3 mM CaCl2, and 2 mM Na2 HPO41 the final pH of the medium being pH 7.4. The probes were dialyzed at a flow rate of […]. and samples were collected every 15 min.
The dialysis probes were allowed to equilibrate for 1-2 hours prior to collection of the baseline samples. […] RTI-4793-14 (1-100 μM) was then administered focally via the dialysis probe for a 15 min. sampling period at the end of which normal dialysis medium was dialyzed through the probe. Sampling continued for a further 3 samples before application of the subsequent concentration of RTI-4793-14. In a subsequent group of animals RTI-4793-14 was administered systemically (5mg/kg; 5mg/ml) via a femoral vein catheter.
The samples were analyzed for DA using HPLC with electrochemical detection. The mobile phase (75 mM NaH2 PO4, 1.5 mM sodium dodecyl sulphate, 20 mM EDTA, 15% acetonitrile and 12% methanol, pH 5.6) was filtered and degassed before pumping at a rate of 0.75 ml/min. through a HR-80 column (3m BDS, 80×4.6 mm). Electrochemical detection-was performed using a Coulochem II with Guard cell:+350 mV, Det 1: -75 mV, and Det 2: +22 mV.
In vivo microdialysis data were analyzed by using a one-way ANOVA and post-hoc Dunnetts t-test. In the focal RTI experiments in which 3 drug concentrations were administered, the baseline value for dopamine was defined as the sample preceding the application of each drug concentration. Analysis of any drug effect was therefore made comparing the baseline value prior to the drug administration.

The subject of experiment [2] is eleven neurotransmitter, four regulatory site, four ion channel, and three second-messenger assays. Briefly: NovaScreen/NIMH Psychoactive Drug Discovery Program panel. To be noted: 10^-5 M. The method, then:
Compound 3b also was tested in the NovaScreen/NIMH Psychoactive Drug Discovery Program which included eleven neurotransmitter, four regulatory site, four ion channel, and three second-messenger assays.

The test system of experiment [3] is DA transporter. To be noted: Kuhar et al. 1990; cited from earlier work.

SMILES strings stand for the structures. Entries after “also recorded” stand apart in the source; their conditions may differ.

On to `CN1[C@H](Cc2ccccc2)C[C@H]2Cc3ccccc3[C@H]21` (relative stereo) [RTI-4793-14, (2RS, 3aSR, 8aRS)-1,2,3a,8,8a-Hexahydro-2-benzyl-1-methyl-indeno[1,2-b]pyrrole], for which the “increase in extracellular DA” value in experiment [1] (focal application via the microdialysis probe, 1 μM) is on record as “about 2 fold”; in experiment [1] (focal application via the microdialysis probe, 10 μM), roughly 8 fold; in experiment [1] (intravenous, 5 mg/kg), “about 2 fold”. Also, the “effect on extracellular dopamine in words” value in experiment [1] (local or systemic administration in rats) is on record as “increased extracellular DA; also recorded: increase the levels of dopamine in the brain”. Further, the “inhibition in NovaScreen panel” value in experiment [2] was “No significant inhibition”.
As for `c1ccc(C2(N3CCCCC3)CCCCC2)cc1` [PCP, phencyclidine], the “affinity at the DA transporter labeled with [^3 H]mazindol” value in experiment [3] is recorded as “low affinity”.
